Laboratory results published in patent publication US7626031B2, “Substituted 3-(diarylmethylene)indolin-2-ones and methods of their use” (Symphony Evolution, Inc., priority 2002, dated 2009).

How the values were obtained:
EGFR = EGFR (Homo sapiens, UniProt P00533); experiment: Kinase assay, EGFR (33P-ATP incorporation or luciferase-coupled ATP consumption); format: biochemical
Procedure, shortened: (§1)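 Kinase activity measured either by γ-33P ATP incorporation into immobilized substrate (MBP or pEY) with scintillation counting, or by luciferase-based ATP consumption with pEY. Enzyme 10 or 20 nM; ATP near each kinase's KM (e.g. 10 or 30 μM); 1 h at room temperature, 1% DMSO, 10-point dose-response.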

[1] = molecular target: T1, KDR (baculovirus expressed human KDR kinase domain D807-V1356) (Homo sapiens, UniProt P35968); experiment: biochemical
T1 construct: human KDR kinase domain D807-V1356; host or cells: baculovirus expression system
T1 sequence (P35968 807-1356): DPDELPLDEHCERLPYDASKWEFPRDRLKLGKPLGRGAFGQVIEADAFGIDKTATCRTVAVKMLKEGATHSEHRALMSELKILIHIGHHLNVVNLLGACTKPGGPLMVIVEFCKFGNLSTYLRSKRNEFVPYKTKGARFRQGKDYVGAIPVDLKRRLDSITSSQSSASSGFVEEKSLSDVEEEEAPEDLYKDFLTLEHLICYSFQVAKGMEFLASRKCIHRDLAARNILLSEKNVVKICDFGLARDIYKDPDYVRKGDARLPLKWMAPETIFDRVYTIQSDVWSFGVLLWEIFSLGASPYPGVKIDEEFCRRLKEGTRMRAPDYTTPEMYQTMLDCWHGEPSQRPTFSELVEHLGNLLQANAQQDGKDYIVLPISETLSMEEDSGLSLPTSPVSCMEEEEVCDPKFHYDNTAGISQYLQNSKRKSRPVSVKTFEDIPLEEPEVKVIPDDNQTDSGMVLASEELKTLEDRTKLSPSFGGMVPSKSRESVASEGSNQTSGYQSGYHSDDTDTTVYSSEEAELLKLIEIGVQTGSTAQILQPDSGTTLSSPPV
Procedure, shortened: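 Luciferase-coupled chemiluminescence quantifies ATP left after a 4 h room-temperature reaction of KDR kinase domain (D807–V1356, baculovirus-expressed human). ATP set close to KM; inhibitors tested at 10 concentrations.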

PDGFR alpha = PDGFR alpha (Homo sapiens, UniProt P16234); experiment: Kinase assay, PDGFR alpha (33P-ATP incorporation or luciferase-coupled ATP consumption); format: biochemical; conditions: read-out: PDGF-R-A IC50
PDGFR alpha, sequence (P16234 24-1089): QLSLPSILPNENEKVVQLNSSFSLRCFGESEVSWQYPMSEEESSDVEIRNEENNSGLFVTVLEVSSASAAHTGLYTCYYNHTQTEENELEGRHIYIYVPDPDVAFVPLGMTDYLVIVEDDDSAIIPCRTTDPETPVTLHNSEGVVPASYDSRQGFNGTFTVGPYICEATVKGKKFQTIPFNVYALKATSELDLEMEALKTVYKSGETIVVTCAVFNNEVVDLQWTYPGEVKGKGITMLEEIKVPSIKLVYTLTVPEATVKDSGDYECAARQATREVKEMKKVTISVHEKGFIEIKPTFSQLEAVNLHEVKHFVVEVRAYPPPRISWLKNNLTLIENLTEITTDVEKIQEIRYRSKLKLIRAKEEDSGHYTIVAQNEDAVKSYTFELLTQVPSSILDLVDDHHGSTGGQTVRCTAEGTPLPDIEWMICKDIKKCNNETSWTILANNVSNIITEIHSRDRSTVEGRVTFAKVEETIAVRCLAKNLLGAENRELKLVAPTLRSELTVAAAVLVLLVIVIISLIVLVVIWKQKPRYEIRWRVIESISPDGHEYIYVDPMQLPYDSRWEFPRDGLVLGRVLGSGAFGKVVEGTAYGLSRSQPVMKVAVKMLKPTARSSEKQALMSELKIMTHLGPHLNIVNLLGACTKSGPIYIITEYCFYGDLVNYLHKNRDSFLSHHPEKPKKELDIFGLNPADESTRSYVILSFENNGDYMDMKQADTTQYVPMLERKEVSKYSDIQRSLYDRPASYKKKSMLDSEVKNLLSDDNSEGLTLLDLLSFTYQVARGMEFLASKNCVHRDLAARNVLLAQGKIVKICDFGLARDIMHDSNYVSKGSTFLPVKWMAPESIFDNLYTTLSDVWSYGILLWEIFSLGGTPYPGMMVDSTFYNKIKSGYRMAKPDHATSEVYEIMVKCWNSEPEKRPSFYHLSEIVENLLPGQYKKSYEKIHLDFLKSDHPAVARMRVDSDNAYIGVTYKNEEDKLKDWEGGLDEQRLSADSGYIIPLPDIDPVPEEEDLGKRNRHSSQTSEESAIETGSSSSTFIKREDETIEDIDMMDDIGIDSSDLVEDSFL
Procedure, shortened: as §1

IRK = IRK (Homo sapiens, UniProt P06213); experiment: Kinase assay, IRK; format: biochemical
Protocol: (§2) Kinase activity and compound inhibition are investigated using one or more assay formats. The ATP concentrations for each assay are selected to be close to the Michaelis-Menten constant (KM) for each individual kinase. Dose-response experiments are performed at 10 different inhibitor concentrations in a 384-well plate format. […] Exemplary kinase assays are described below. KDR Assay

EphA2 = EphA2 (Homo sapiens, UniProt P29317); experiment: Kinase assay, EphA2 (33P-ATP incorporation or luciferase-coupled ATP consumption); format: biochemical
Procedure, shortened: as §1

Fyn = Fyn (Homo sapiens, UniProt P06241); experiment: Kinase assay, Fyn; format: biochemical
Fyn, sequence (P06241 whole entry, species assumed): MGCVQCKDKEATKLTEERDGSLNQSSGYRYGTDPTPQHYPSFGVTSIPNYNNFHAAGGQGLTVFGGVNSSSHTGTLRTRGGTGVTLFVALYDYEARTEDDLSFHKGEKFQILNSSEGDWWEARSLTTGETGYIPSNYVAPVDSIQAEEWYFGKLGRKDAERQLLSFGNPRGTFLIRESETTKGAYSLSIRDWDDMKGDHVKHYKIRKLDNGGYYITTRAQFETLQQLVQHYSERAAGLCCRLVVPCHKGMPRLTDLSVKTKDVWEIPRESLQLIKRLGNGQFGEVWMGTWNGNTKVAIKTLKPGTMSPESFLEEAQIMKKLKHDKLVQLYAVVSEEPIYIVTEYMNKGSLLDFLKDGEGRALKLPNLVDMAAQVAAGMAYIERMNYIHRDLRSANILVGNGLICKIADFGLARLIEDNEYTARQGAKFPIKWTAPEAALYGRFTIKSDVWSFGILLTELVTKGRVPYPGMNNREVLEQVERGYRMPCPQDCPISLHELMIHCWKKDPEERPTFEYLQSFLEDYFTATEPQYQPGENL
Protocol: as §2

c-Kit kinase = c-Kit kinase (Homo sapiens, UniProt P10721); experiment: c-Kit AlphaScreen kinase assay; format: biochemical
Protocol: as §2
c-Kit biochemical activity was assessed using AlphaScreen™ (Perkin Elmer) technology, described above. Test compounds, ATP, biotinylated poly(Glu, Tyr) and c-Kit kinase were combined in a volume of 20 μL in a 384-well white, medium binding microtiter plate (Greiner). Reaction mixtures were incubated for 1 hr at ambient temperature. Reactions were quenched by addition of 10 uL of […] AlphaScreen bead suspension containing 75 mM Hepes, pH 7.4, 300 mM NaCl, 120 mM EDTA, 0.3% BSA and 0.03% Tween-20. After 16 hr incubation at ambient temperature plates were read using an AlphaQuest reader (Perkin Elmer).

FGFR1 = FGFR1 (Homo sapiens, UniProt P11362); experiment: Kinase assay, FGFR1 (33P-ATP incorporation or luciferase-coupled ATP consumption); format: biochemical
Procedure, shortened: as §1

Flt-1 = Flt-1 (Homo sapiens, UniProt P17948); experiment: Kinase assay, Flt-1 (33P-ATP incorporation or luciferase-coupled ATP consumption); format: biochemical; conditions: read-out: Flt1 IC50
Flt-1, sequence (P17948 27-1338, species assumed): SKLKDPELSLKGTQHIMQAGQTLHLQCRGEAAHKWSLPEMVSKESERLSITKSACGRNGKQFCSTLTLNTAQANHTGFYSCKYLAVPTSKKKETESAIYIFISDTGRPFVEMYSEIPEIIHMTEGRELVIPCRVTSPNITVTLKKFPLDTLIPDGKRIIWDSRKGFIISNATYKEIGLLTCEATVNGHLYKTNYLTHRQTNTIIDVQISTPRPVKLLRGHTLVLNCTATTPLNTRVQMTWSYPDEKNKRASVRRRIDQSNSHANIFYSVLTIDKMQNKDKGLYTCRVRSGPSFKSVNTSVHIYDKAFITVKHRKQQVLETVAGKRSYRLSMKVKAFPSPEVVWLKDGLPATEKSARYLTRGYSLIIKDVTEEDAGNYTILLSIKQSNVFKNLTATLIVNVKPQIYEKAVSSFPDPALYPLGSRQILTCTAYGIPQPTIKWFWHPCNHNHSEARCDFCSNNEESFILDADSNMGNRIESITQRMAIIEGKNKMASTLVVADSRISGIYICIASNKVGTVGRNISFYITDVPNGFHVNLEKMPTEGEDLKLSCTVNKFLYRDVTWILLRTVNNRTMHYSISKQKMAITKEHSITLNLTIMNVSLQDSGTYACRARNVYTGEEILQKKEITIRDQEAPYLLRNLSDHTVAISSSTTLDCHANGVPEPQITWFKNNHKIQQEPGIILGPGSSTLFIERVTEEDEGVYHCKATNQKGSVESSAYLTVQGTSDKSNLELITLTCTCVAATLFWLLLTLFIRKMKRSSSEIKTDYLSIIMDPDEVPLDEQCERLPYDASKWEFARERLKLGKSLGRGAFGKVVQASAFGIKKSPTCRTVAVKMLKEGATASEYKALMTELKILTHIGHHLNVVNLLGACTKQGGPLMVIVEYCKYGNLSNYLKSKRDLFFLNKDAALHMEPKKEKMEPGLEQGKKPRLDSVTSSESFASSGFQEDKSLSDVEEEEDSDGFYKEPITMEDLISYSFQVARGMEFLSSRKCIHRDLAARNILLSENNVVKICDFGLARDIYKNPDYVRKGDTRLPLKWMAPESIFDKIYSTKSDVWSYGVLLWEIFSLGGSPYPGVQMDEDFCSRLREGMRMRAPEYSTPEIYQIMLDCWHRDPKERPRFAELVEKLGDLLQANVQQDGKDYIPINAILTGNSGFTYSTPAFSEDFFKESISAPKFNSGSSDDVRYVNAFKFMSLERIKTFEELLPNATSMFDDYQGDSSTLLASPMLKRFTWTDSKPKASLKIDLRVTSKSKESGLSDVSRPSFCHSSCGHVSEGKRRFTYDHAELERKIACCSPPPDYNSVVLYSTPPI
Procedure, shortened: as §1

EGFR, sequence (P00533 25-1210, species assumed): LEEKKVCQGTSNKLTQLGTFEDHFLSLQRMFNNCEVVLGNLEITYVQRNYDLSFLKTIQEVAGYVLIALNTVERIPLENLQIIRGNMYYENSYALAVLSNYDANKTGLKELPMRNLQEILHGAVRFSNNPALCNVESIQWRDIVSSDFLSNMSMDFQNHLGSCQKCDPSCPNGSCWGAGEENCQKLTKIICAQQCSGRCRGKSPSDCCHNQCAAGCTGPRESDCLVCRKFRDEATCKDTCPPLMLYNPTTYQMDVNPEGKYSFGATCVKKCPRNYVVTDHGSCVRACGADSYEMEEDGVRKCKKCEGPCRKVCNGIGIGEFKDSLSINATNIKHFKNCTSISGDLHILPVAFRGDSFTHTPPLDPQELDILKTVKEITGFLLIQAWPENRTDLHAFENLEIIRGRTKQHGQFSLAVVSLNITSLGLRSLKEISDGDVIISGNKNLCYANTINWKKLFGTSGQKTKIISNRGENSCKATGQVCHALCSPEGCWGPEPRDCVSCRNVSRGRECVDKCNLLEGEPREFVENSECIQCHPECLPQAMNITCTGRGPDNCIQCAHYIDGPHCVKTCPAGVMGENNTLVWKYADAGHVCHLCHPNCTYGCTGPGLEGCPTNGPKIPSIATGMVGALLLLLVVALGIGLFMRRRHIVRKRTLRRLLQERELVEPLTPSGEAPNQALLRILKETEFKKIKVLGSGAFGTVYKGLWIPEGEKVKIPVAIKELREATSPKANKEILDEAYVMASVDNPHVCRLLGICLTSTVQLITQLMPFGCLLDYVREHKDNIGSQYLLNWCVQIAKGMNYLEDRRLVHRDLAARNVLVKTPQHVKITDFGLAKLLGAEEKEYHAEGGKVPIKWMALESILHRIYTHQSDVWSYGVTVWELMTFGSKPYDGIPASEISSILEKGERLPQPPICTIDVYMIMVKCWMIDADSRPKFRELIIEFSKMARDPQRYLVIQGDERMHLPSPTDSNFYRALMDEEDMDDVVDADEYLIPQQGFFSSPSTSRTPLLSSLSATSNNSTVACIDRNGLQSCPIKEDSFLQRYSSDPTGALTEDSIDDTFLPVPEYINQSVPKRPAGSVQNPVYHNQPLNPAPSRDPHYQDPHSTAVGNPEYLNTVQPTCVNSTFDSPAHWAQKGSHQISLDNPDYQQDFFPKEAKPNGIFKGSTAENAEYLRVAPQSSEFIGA

| IC50 (EGFR) | IC50 [1] | IC50 (PDGFR alpha) | IC50 (IRK) | IC50 (EphA2) | IC50 (Fyn) | IC50 (c-Kit kinase) | IC50 (FGFR1) | IC50 (Flt-1) | Structure (SMILES) |
| --- | --- | --- | --- | --- | --- | --- | --- | --- | --- |
| 500 to 5000 nM | < 50 nM | < 50 nM | 500 to 5000 nM | 500 to 5000 nM | < 50 nM |  | < 50 nM | 50 to 500 nM | COCCN1CCC(Nc2ccc3c(c2)/C(=C(\c2cccc(Cl)c2)c2ncc[nH]2)C(=O)N3)CC1 [Entry 40, (3Z)-3-[(3-chlorophenyl)(1H-imidazol-2-yl)methylidene]-5-({1-[2-(methyloxy)ethyl]piperidin-4-yl}amino)-1,3-dihydro-2H-indol-2-one] |
| 50 to 500 nM | < 50 nM | < 50 nM | 500 to 5000 nM | 500 to 5000 nM | < 50 nM |  | 50 to 500 nM | 50 to 500 nM | COCCN1CCC(Nc2ccc3c(c2)/C(=C(\c2cccc(F)c2)c2nc4ccccc4[nH]2)C(=O)N3)CC1 [Entry 46, (3Z)-3-[1H-benzimidazol-2-yl(3-fluorophenyl)methylidene]-5-({1-[2-(methyloxy)ethyl]piperidin-4-yl}amino)-1,3-dihydro-2H-indol-2-one] |
| < 50 nM | < 50 nM | < 50 nM | 500 to 5000 nM | 500 to 5000 nM | < 50 nM |  | < 50 nM | < 50 nM | CCN1CCC(Nc2ccc3c(c2)/C(=C(\c2ccc(C)c(F)c2)c2nc4ccccc4[nH]2)C(=O)N3)CC1 [Entry 50, (3Z)-3-[1H-benzimidazol-2-yl(3-fluoro-4-methylphenyl)methylidene]-5-{(1-ethylpiperidin-4-yl)amino]-1,3-dihydro-2H-indol-2-one] |
| 500 to 5000 nM | < 50 nM | < 50 nM | 500 to 5000 nM | 500 to 5000 nM | 50 to 500 nM |  | 50 to 500 nM | 500 to 5000 nM | COCCN1CCC(Nc2ccc3c(c2)/C(=C(\c2ccc(F)cc2)c2nc4ccccc4[nH]2)C(=O)N3)CC1 [Entry 47, (3Z)-3-[1H-benzimidazol-2-yl(4-fluorophenyl)methylidene]-5-({1-[2-(methyloxy)ethyl]piperidin-4-yl}amino)-1,3-dihydro-2H-indol-2-one] |
| 50 to 500 nM |  |  | 500 to 5000 nM | 500 to 5000 nM | < 50 nM | < 50 nM |  |  | COCCN1CCC(Nc2ccc3c(c2)/C(=C(\c2ccccc2)c2nc4ccccc4[nH]2)C(=O)N3)CC1 [Entry 24, (3Z)-3-[1H-benzimidazol-2-yl(phenyl)methylidene]-5-({1-[2-(methyloxy)ethyl]piperidin-4-yl}amino)-1,3-dihydro-2H-indol-2-one] |
| 50 to 500 nM | < 50 nM | < 50 nM | 500 to 5000 nM | 500 to 5000 nM | < 50 nM |  | 50 to 500 nM | < 50 nM | CCN1CCC(Nc2ccc3c(c2)/C(=C(\c2ccc(Cl)cc2)c2nc4ccccc4[nH]2)C(=O)N3)CC1 [Entry 45, (3Z)-3-[1H-benzimidazol-2-yl(4-chlorophenyl)methylidene]-5-[(1-ethylpiperidin-4-yl)amino]-1,3-dihydro-2H-indol-2-one] |
| 500 to 5000 nM | < 50 nM | < 50 nM | 500 to 5000 nM | 500 to 5000 nM | < 50 nM |  | 50 to 500 nM | 500 to 5000 nM | COCCN1CCC(Oc2ccc3c(c2)/C(=C(\c2cc(F)cc(F)c2)c2nc4ccccc4[nH]2)C(=O)N3)CC1 [Entry 36, (3Z)-3-[1H-benzimidazol-2-yl(3,5-difluorophenyl)methylidene]-5-({1-[2-(methyloxy)ethyl]piperidin-4-yl}oxy)-1,3-dihydro-2H-indol-2-one] |
| 50 to 500 nM | < 50 nM | < 50 nM | > 5000 nM | 500 to 5000 nM | < 50 nM |  | < 50 nM | 50 to 500 nM | COCCN1CCC(Nc2ccc3c(c2)/C(=C(\c2cc(F)cc(F)c2)c2nc4ccccc4[nH]2)C(=O)N3)CC1 [Entry 42] |
| 50 to 500 nM | < 50 nM | < 50 nM | 500 to 5000 nM | 500 to 5000 nM | < 50 nM |  | < 50 nM | < 50 nM | CCN1CCC(Nc2ccc3c(c2)/C(=C(\c2cccc(OC)c2)c2nc4ccccc4[nH]2)C(=O)N3)CC1 [Entry 26, (3Z)-3-{1H-benzimidazol-2-yl [3-(methyloxy)phenyl]methylidene}-5-[(1-ethylpiperidin-4-yl)amino]-1,3-dihydro-2H-indol-2-one] |
| 500 to 5000 nM | < 50 nM | < 50 nM | 500 to 5000 nM | 500 to 5000 nM | < 50 nM |  | < 50 nM | 50 to 500 nM | COCCN1CCC(Nc2ccc3c(c2)/C(=C(\c2cccc(Cl)c2)c2nc4ccccc4[nH]2)C(=O)N3)CC1 [Entry 38, (3Z)-3-[1H-benzimidazol-2-yl(3-chlorophenyl)methylidene]-5-({1-[2-(methyloxy)ethyl]piperidin-4-yl}amino)-1,3-dihydro-2H-indol-2-one] |

The next lines start with the compound.

| Structure (SMILES) | IC50 (EGFR) | IC50 [1] | IC50 (PDGFR alpha) | IC50 (IRK) | IC50 (EphA2) | IC50 (Fyn) | IC50 (c-Kit kinase) | IC50 (FGFR1) | IC50 (Flt-1) |
| --- | --- | --- | --- | --- | --- | --- | --- | --- | --- |
| CCN1CCC(Nc2ccc3c(c2)/C(=C(\c2ccc(F)c(F)c2)c2ncc[nH]2)C(=O)N3)CC1 [Entry 54, (3Z)-3-[(3,4-difluorophenyl)(1H-imidazol-2-yl)methylidene]-5-[(1-ethylpiperidin-4-yl)amino]-1,3-dihydro-2H-indol-2-one] | 500 to 5000 nM | < 50 nM | < 50 nM | > 5000 nM | 500 to 5000 nM | < 50 nM | 50 to 500 nM | < 50 nM |  |
| CCN1CCC(Nc2ccc3c(c2)/C(=C(/c2ncc[nH]2)c2ccc(F)cc2F)C(=O)N3)CC1 [Entry 112, (3Z)-3-[(2,4-difluorophenyl)(1H-imidazol-2-yl)methylidene]-5-[(1-ethylpiperidin-4-yl)amino]-1,3-dihydro-2H-indol-2-one] | 50 to 500 nM | < 50 nM | < 50 nM | 500 to 5000 nM | 500 to 5000 nM | < 50 nM | < 50 nM | < 50 nM |  |
| CCN1CCC(Nc2ccc3c(c2)/C(=C(\c2ccc(F)c(Cl)c2)c2nc(C)c[nH]2)C(=O)N3)CC1 [Entry 105, (3Z)-3-[(3-chloro-4-fluorophenyl)(4-methyl-1H-imidazol-2-yl)methylidene]-5-[(1-ethylpiperidin-4-yl)amino]-1,3-dihydro-2H-indol-2-one] | 50 to 500 nM | < 50 nM | < 50 nM | 500 to 5000 nM | 500 to 5000 nM | < 50 nM | 50 to 500 nM | < 50 nM |  |
| CCN1CCC(Nc2ccc3c(c2)/C(=C(\c2ccc(C(F)(F)F)cc2)c2ncc[nH]2)C(=O)N3)CC1 [Entry 60, (3Z)-5-[(1-ethylpiperidin-4-yl)amino]-3-{1H-imidazol-2-yl[4-(trifluoromethyl)phenyl]methylidene}-1,3-dihydro-2H-indol-2-one] | 500 to 5000 nM | < 50 nM | < 50 nM | > 5000 nM | 500 to 5000 nM | < 50 nM | 50 to 500 nM | < 50 nM |  |
| CCN1CCC(Oc2ccc3c(c2)/C(=C(\c2cccc(Cl)c2)c2ncc[nH]2)C(=O)N3)CC1 [Entry 44, (3Z)-3-[(3-chlorophenyl)(1H-imidazol-2-yl)methylidene]-5-[(1-ethylpiperidin-4-yl)oxy]-1,3-dihydro-2H-indol-2-one] | 500 to 5000 nM | < 50 nM | 50 to 500 nM | 500 to 5000 nM | 500 to 5000 nM | 50 to 500 nM |  | 50 to 500 nM | 500 to 5000 nM |
| CCN1CCC(Nc2ccc3c(c2)/C(=C(\c2cccc(Cl)c2)c2ncc[nH]2)C(=O)N3)CC1 [Entry 48, (3Z)-3-[(3-chlorophenyl)(1H-imidazol-2-yl)methylidene]-5-[(1-ethylpiperidin-4-yl)amino]-1,3-dihydro-2H-indol-2-one] | 50 to 500 nM | < 50 nM | < 50 nM | > 5000 nM | 500 to 5000 nM | < 50 nM |  | < 50 nM | 50 to 500 nM |
| CCN1CCC(Nc2ccc3c(c2)/C(=C(\c2ccc(C(F)(F)F)c(F)c2)c2nc(C)c[nH]2)C(=O)N3)CC1 [Entry 103, (3Z)-5-[(1-ethylpiperidin-4-yl)amino]-3-[[3-fluoro-4-(trifluoromethyl)phenyl](4-methyl-1H-imidazol-2-yl)methylidene]-1,3-dihydro-2H-indol-2-one] | < 50 nM | < 50 nM |  | 500 to 5000 nM | 500 to 5000 nM | < 50 nM | 50 to 500 nM | < 50 nM |  |
